US9079880B2, “Rho kinase inhibitors” (Boehringer Ingelheim International GmbH, priority 2010, dated 2015)
pIC50: −log10 of the molar value.

Tests used:
[1] = biological target: T1, ROCKII (1-543) (Homo sapiens (Human), UniProt O75116); assay: IMAP Assay (fluorescence polarization, FAM S6 peptide); assay type: biochemical; settings: 100 μM ATP, 200 nM FAM S6 peptide, 1 nM kinase; read-out: Assay 2 IC50
Protocol: This assay is performed using FAM S6 substrate peptide (Catalogue #R7184) and IMAP FP Screening Express Kit detection reagents from Molecular Devices (Sunnyvale, Calif.) in IMAP kinase reaction buffer (Tris-HCl, pH 7.2, 10 mM MgCl2, 0.05% NaN3, 0.1% phosphate-free BSA) containing 1 mM DTT. Test compounds dissolved in neat DMSO at 0.3 mg/mL are serially diluted 1 to 3 for concentration response in 100% DMSO. The DMSO serial dilutions are further diluted 33.33-fold in kinase reaction buffer, and 10 μL of this buffer dilution is transferred to Corning black 96-well half area NBS plates for a final top concentration of 3 μg/mL in 1% DMSO. 10 μL aliquot of 3 nM ROCKII (1-543) diluted in kinase reaction buffer is added to each assay well for a final concentration of 1 nM kinase. 10 μL of a mixture of 600 nM FAM S6 peptide and 300 μM ATP diluted in kinase reaction buffer is added to each well for a final concentration of 200 nM peptide and 100 μM ATP. The kinase reaction mixture is incubated for 60 minutes at room temperature. Positive controls are reaction mixtures containing no test compound and negative controls (blanks) are reaction mixtures containing no kinase. The kinase reaction is stopped by addition of 60 μL IMAP progressive binding reagent (Catalog #R7284) diluted 400-fold in 1× Binding buffer A. After 30 min of incubation at room temperature, the plates are read for fluorescence polarization on Analyst Plate Reader using Ex 485 nm, Em 530 nm, and FL 505 dichroic mirror. The mP signals are converted to percent of control (POC) values using the formula: POC=100*(Signal−BCTRL)÷(PCTRL−BCTRL)
Where Signal is the test well signal, BCTRL is the average of background (negative control) well signals on the plate and PCTRL is the average of positive control well signals on the plate. For the concentration-responsive compounds, POC as a function of test compound concentration is fitted to a 4-parameter logistic equation of the form: Y=A+(B−A)/[1+(x/C)D] Where A, B, C, and D are fitted parameters (parameter B is fixed at zero POC), and x and y are the independent and dependent variables, respectively. The IC50 is determined as the inflection point parameter, C.
Target sequence in this assay (O75116 1-543, species assumed): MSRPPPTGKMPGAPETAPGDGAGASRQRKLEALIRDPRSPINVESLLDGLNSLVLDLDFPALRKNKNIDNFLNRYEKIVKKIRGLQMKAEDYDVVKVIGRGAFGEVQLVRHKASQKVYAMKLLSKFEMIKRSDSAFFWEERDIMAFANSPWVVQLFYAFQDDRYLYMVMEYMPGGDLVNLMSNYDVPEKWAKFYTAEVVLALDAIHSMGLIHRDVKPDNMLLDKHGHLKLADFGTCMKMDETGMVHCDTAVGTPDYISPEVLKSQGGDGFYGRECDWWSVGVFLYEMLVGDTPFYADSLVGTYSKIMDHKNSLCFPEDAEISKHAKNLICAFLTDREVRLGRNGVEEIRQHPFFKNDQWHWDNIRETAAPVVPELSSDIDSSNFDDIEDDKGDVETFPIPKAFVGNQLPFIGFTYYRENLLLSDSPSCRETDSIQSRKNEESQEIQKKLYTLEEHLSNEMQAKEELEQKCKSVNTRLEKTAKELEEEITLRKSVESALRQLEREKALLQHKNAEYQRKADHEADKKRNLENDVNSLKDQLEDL

[2] = biological target: T1, ROCKII (1-543); assay: Luciferin-Luciferase Assay (PKLight ATP detection); assay type: biochemical; settings: 750 nM ATP, 500 nM peptide, 7.5 nM kinase
Protocol: 1. Luciferin-Luciferase Assay
The activity of ROCKII (1-543) kinase was measured utilizing Cambrex PKLight ATP Detection Reagent, a homogeneous assay technology using luciferin-luciferase to quantify residual ATP. The assay was performed in 384-well low-volume, white, non-binding surface microtiter plates (Corning). The assay buffer was 25 mM HEPES, pH 7.5, 10 mM MgCl2, 50 mM KCl, 0.2% BSA, 0.01% CHAPS, 100 μM Na3VO4 and 0.5 mM DTT. Test compounds, dissolved in neat DMSO at 500 μg/mL, were serially diluted for dose response for a final starting concentration of 3 μg/mL in 1% DMSO of assay buffer. ROCKII (1-543) (62,408Da) was diluted in assay buffer to a final concentration of 7.5 nM in a total volume of 15 μL. Positive controls were reaction mixtures containing no test compound; negative controls (blanks) were reaction mixtures containing no kinase. After 15 minutes of pre-incubation of the test compounds with the kinase, a mixture of ATP and peptide substrate ([…]) in assay buffer was added to each well for a final concentration of 750 nM ATP and 500 nM peptide, respectively. After 90 minutes of incubation of the kinase reaction at 28° C. temperature, 10 μL of PKLight ATP Detection Reagent (warmed to room temperature previously) was added to each well. The assay plate was incubated at room temperature for additional 15 minutes and then read on an Analyst in luminescence mode. Dose-response experiments for each of the test compounds were conducted in quadruplet. IC50 values of test compounds represent 50% response of the positive control from the dose-response curve.
Target sequence in this assay (O75116 1-543): as the sequence (O75116 1-543, species assumed) above

SMILES | pIC50 [1] | pIC50 [2]
N#Cc1ccc(NC(=O)COc2cccc(C(=O)Nc3nc4c(s3)C[C@@H](N)CC4)c2)cc1 [Compound 11, N—((S)-6-amino-4,5,6,7-tetrahydro-benzothiazol-2-yl)-3-[(4-cyano-phenylcarbamoyl)-methoxy]-benzamide] | 7.96 | 8.43
N#Cc1ccc(NC(=O)COc2cccc(C(=O)Nc3nc4c(s3)C[C@@H](N3CCOCC3)CC4)c2)cc1 [Compound 13] | 8.07 | 8.47
N#Cc1cccc(NC(=O)N2CCC[C@@H]2c2cccc(C(=O)Nc3ccc(CCN4CCOCC4)cc3)c2)c1 [Compound 16, (R)-2-{3-[4-(2-morpholin-4-yl-ethyl)-phenylcarbamoyl]-phenyl}-pyrrolidine-1-carboxylic acid (3-cyano-phenyl)-amide trifluoro acetic acid] | 7.64 | 8.24
N#Cc1cccc(NC(=O)N2CCC[C@@H]2c2cccc(C(=O)Nc3ccc(CCN4CCCC4)cc3)c2)c1 [Compound 18] | 7.72 | 8.22
N#Cc1cccc(NC(=O)N2CCC[C@@H]2c2cccc(C(=O)Nc3nc4c(s3)C[C@@H](N)CC4)c2)c1 [Compound 20, (R)-2-[3-((S)-6-Amino-4,5,6,7-tetrahydro-benzothiazol-2-ylcarbamoyl)-phenyl]-pyrrolidine-1-carboxylic acid (3-cyano-phenyl)-amide trifluoroacetic acid] | 9.41 | 8.77
N#Cc1cccc(NC(=O)N2CCC[C@@H]2c2cccc(C(=O)Nc3nc4c(s3)C[C@H](N)CC4)c2)c1 [Compound 22] | 9.00 | 8.59
CN1CCc2nc(NC(=O)c3cccc([C@H]4CCCN4C(=O)c4ccc(-c5ccncc5)cc4)c3)sc2C1 [Compound 26] | 8.24 | 8.77
CN1CCc2nc(NC(=O)c3cccc([C@H]4CCCN4C(=O)N4CCc5c(C#N)cccc54)c3)sc2C1 [Compound 42, 3-[(R)-1-(4-Cyano-2,3-dihydro-indole-1-carbonyl)-pyrrolidin-2-yl]-N-(5-methyl-4,5,6,7-tetrahydro-thiazolo[5,4-c]pyridin-2-yl)-benzamide trifluoroacetic acid] | 7.35 | 8.16
Cc1nc(-c2ccncc2)sc1C(=O)N1CCC[C@@H]1c1cccc(C(=O)Nc2nc3c(s2)C[C@@H](N(C)C)CC3)c1 [Compound 48] | 8.00 | 8.55
CN(C)[C@H]1CCc2nc(NC(=O)c3cccc([C@H]4CCCN4C(=O)c4nnn(-c5nonc5N)c4-c4ccccc4)c3)sc2C1 [Compound 50] | 8.06 | 8.66
COc1ccc(C(=O)N[C@H](C)c2cccc(C(=O)Nc3nc4c(s3)CN(C)CC4)c2)cc1Cl [Compound 89] | 7.89 | 8.41
COc1ccc(C(=O)N[C@H](C)c2cccc(C(=O)Nc3nc4c(s3)CN(C)CC4)c2)cc1C [Compound 93] | 7.54 | 8.05
COc1ccc(C(=O)N[C@H](C)c2cccc(C(=O)Nc3nc4c(s3)CN(C)CC4)c2)cc1OC [Compound 97] | 8.24 | 8.51
CCCC[C@@H](NC(=O)c1ccc(OC)c(OC)c1)c1cccc(C(=O)Nc2nc3c(s2)CN(C)CC3)c1 [Compound 98] | 7.96 | 8.21
CN1CCc2nc(NC(=O)c3cccc([C@H]4CCCN4C(=O)Nc4cccc(C#N)c4)c3)sc2C1 [Compound 101, (R)-2-[3-(5-Methyl-4,5,6,7-tetrahydro-thiazolo[5,4-c]pyridin-2-ylcarbamoyl)-phenyl]-pyrrolidine-1-carboxylic acid (3-cyano-phenyl)-amide trifluoroacetic acid] | 8.17 | 8.51
O=C(Nc1nc2c(s1)C[C@@H](N1CCOCC1)CC2)c1cccc([C@H]2CCCN2C(=O)c2cc(-c3ccncc3)[nH]n2)c1 [Compound 138] | 8.38 | 

More lines, in order of rising pIC50 [1], values ahead:

pIC50 [1] | pIC50 [2] | SMILES
8.42 |  | CN(C)[C@H]1CCc2nc(NC(=O)c3cccc([C@H]4CCCN4C(=O)c4ccc(-c5ccncc5)cc4)c3)sc2C1 [Compound 88]
8.44 | 8.59 | CN(C)[C@H]1CCc2nc(NC(=O)c3cccc([C@H]4CCCN4C(=O)c4ccc(-n5ccnc5)cc4)c3)sc2C1 [Compound 102]
8.66 | 8.77 | CN(C)[C@H]1CCc2nc(NC(=O)c3cccc(OCC(=O)Nc4ccc(C#N)cc4)c3)sc2C1 [Compound 9]
8.68 | 8.72 | CN1CCc2nc(NC(=O)c3cccc([C@H]4CCCN4C(=O)c4cccc(-c5cn[nH]c5)c4)c3)sc2C1 [Compound 78]
8.68 |  | CN(C)[C@H]1CCc2nc(NC(=O)c3cccc([C@H]4CCCN4C(=O)c4ccc(-c5cnco5)cc4)c3)sc2C1 [Compound 90]
8.70 |  | CN(C)[C@H]1CCc2nc(NC(=O)c3cccc([C@H]4CCCN4C(=O)c4csc(-c5ccncc5)n4)c3)sc2C1 [Compound 94]
8.70 |  | CN(C)[C@H]1CCc2nc(NC(=O)c3cccc([C@H]4CCCN4C(=O)c4ccc5cc(O)ccc5c4)c3)sc2C1 [Compound 100]
8.72 |  | CN(C)[C@H]1CCc2nc(NC(=O)c3cccc([C@H]4CCCN4C(=O)c4cccc(-c5cn[nH]c5)c4)c3)sc2C1 [Compound 106]
8.77 |  | N#Cc1ccn2cc(C(=O)N3CCC[C@@H]3c3cccc(C(=O)Nc4nc5c(s4)C[C@@H](N4CCOCC4)CC5)c3)nc2c1 [Compound 82]
8.77 |  | CN(C)[C@H]1CCc2nc(NC(=O)c3cccc([C@H]4CCCN4C(=O)c4cn5cc(C(N)=O)ccc5n4)c3)sc2C1 [Compound 104]
8.89 |  | CN(C)[C@H]1CCc2nc(NC(=O)c3cccc([C@H]4CCCN4C(=O)c4csc(-c5cccnc5)n4)c3)sc2C1 [Compound 92]
9.10 |  | CN1CCc2nc(NC(=O)c3cccc(OCC(=O)Nc4ccc5[nH]ncc5c4)c3)sc2C1 [Compound 23]
9.10 | 8.80 | CCCN[C@H]1CCc2nc(NC(=O)c3cccc([C@H]4CCCN4C(=O)Nc4cccc(C#N)c4)c3)sc2C1 [Compound 29, (R)-2-[3-((S)-6-propylamino-4,5,6,7-tetrahydro-benzothiazol-2-ylcarbamoyl)-phenyl]-pyrrolidine-1-carboxylic acid (3-cyano-phenyl)-amide]
9.10 |  | CN(C)[C@H]1CCc2nc(NC(=O)c3cccc([C@H]4CCCN4C(=O)c4cc(-c5ccncc5)[nH]n4)c3)sc2C1 [Compound 96]
9.15 | 8.85 | CN1CCc2nc(NC(=O)c3cccc([C@H]4CCCN4C(=O)Nc4ccc(C(N)=O)cc4)c3)sc2C1 [Compound 44]
9.30 | 8.92 | CCCN[C@H]1CCc2nc(NC(=O)c3cccc([C@@H](C)NC(=O)c4ccc(OC)c(Cl)c4)c3)sc2C1 [Compound 33]
9.40 | 9.05 | CCCN[C@H]1CCc2nc(NC(=O)c3cccc([C@@H](C)NC(=O)c4ccc(OC)c(C)c4)c3)sc2C1 [Compound 35]
9.52 | 9.00 | CCCN[C@H]1CCc2nc(NC(=O)c3cccc([C@@H](C)NC(=O)c4ccc(OC)c(OC)c4)c3)sc2C1 [Compound 31, 3,4-dimethoxy-N-{(R)-1-[3-((S)-6-propylamino-4,5,6,7-tetrahydro-benzothiazol-2-ylcarbamoyl)-phenyl]-ethyl}-benzamide]
9.52 |  | CN(C)[C@H]1CCc2nc(NC(=O)c3cccc([C@H]4CCCN4C(=O)Nc4cccc(C#N)c4)c3)sc2C1 [Compound 37]
